# Test results as given in ChEMBL document CHEMBL5137093, “Improving Drug Delivery While Tailoring Prodrug Activation to Modulate Cmax and Cmin by Optimization of (Carbonyl)oxyalkyl Linker-Based Prodrugs of Atazanavir” (J Med Chem, 2022).
# What was measured:
# [1] = Aqueous stability of the compound in acetate buffer at pH 4 assessed as compound half life measured after 24 hrs by UPLC analysis; format: physicochemical; details: buffer, pH 4, 24 h, 24 h
# [2] = Aqueous stability of the compound in phosphate buffer at pH 6.5 assessed as compound half life measured after 24 hrs by UPLC analysis; format: physicochemical; details: buffer, pH 6.5, 24 h, 24 h
# [3] = Aqueous solubility of compound at pH 1 by UPLC analysis; format: physicochemical; details: buffer
# [4] = Aqueous solubility of compound at pH 4 by UPLC analysis; format: physicochemical; details: buffer
# [5] = Cmax in Sprague-Dawley rat at 3 ml/kg,po measured upto 24 hrs by UPLC-MS/MS analysis; format: ADME; set-up: dose 3 ml/kg, time < 24 hrs, route po; details: in vivo, 24 h
# [6] = Tmax in Sprague-Dawley rat at 3 ml/kg,po measured upto 24 hrs by UPLC-MS/MS analysis; format: ADME; details: in vivo, po, 24 h
# [7] = AUClast in Sprague-Dawley rat at 3 ml/kg,po measured upto 24 hrs by UPLC-MS/MS analysis; format: ADME; set-up: time < 24 hrs, dose 3 ml/kg, route po; details: in vivo, 24 h
# [8] = Relative Cmax ratio of Atazanavir in Sprague-Dawley rat at 3 ml/kg,po measured upto 24 hrs by UPLC-MS/MS analysis; format: ADME; details: in vivo
# [9] = Relative AUC ratio of Atazanavir in Sprague-Dawley rat at 3 ml/kg,po measured upto 24 hrs by UPLC-MS/MS analysis; format: ADME; details: in vivo
# [10] = Fold ratio of total AUC of Atazanavir in Sprague-Dawley rat at 3 ml/kg,po measured upto 24 hrs by UPLC-MS/MS analysis; format: ADME; details: in vivo
# [11] = Ratio of Cmax/Cmin of Atazanavir in Sprague-Dawley rat at 3 ml/kg,po measured after 24 hrs by UPLC-MS/MS analysis; format: ADME; details: in vivo
# [12] = Ratio of AUC of Atazanavir in Sprague-Dawley rat at 3 ml/kg,po measured upto 24 hrs by UPLC-MS/MS analysis; format: ADME; details: in vivo
# [13] = target: T1, UDP-glucuronosyltransferase 1A1 (Homo sapiens, UniProt P22309); experiment: Inhibition of human recombinant UGT1A1 using bilirubin as substrate incubated for 40 mins by LC-MS/MS analysis
# T1 sequence (P22309 whole entry): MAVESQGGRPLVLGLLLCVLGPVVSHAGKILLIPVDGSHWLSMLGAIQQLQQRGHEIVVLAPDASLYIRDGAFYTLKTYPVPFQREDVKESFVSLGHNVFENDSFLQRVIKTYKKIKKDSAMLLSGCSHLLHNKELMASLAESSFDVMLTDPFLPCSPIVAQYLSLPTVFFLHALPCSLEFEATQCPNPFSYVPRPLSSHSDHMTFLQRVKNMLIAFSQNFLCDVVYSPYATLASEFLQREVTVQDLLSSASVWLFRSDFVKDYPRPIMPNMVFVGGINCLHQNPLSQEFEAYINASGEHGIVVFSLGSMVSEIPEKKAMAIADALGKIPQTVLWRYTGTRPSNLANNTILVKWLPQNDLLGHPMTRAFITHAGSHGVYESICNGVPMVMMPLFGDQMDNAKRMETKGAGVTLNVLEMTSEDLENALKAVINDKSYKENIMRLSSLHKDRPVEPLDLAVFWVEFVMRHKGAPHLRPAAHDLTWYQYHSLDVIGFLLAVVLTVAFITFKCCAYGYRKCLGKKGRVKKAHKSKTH
# [14] = target: T1, UDP-glucuronosyltransferase 1A1; experiment: Inhibition of UGT1A1 in human liver microsomes using beta-estradiol as substrate incubated for 40 mins by LC-MS/MS analysis; set-up: species or system Microsome
# [15] = Cmax in Sprague-Dawley rat at 25 ml/kg,po measured upto 24 hrs by UPLC-MS/MS analysis; format: ADME; set-up: time < 24 hrs, dose 25 ml/kg, route po; details: in vivo
# [16] = Tmax in Sprague-Dawley rat at 25 ml/kg,po measured upto 24 hrs by UPLC-MS/MS analysis; format: ADME; details: in vivo
# [17] = AUClast in Sprague-Dawley rat at 25 ml/kg,po measured upto 24 hrs by UPLC-MS/MS analysis; format: ADME; set-up: time < 24 hrs, dose 25 ml/kg, route po; details: in vivo
# [18] = Relative Cmax ratio of Atazanavir in Sprague-Dawley rat at 25 ml/kg,po measured upto 24 hrs by UPLC-MS/MS analysis; format: ADME; details: in vivo
# [19] = Relative AUC ratio of Atazanavir in Sprague-Dawley rat at 25 ml/kg,po measured upto 24 hrs by UPLC-MS/MS analysis; format: ADME; details: in vivo
# [20] = Fold ratio of total AUC of Atazanavir in Sprague-Dawley rat at 25 ml/kg,po measured upto 24 hrs by UPLC-MS/MS analysis; format: ADME; details: in vivo
# [21] = Ratio of Cmax/Cmin of Atazanavir in Sprague-Dawley rat at 25 ml/kg,po measured after 24 hrs by UPLC-MS/MS analysis; format: ADME; details: in vivo
# [22] = Ratio of AUC of Atazanavir in Sprague-Dawley rat at 25 ml/kg,po measured upto 24 hrs by UPLC-MS/MS analysis; format: ADME; details: in vivo
# [23] = Cmax in Sprague-Dawley rat at 1 ml/kg,iv measured upto 24 hrs by UPLC-MS/MS analysis; format: ADME; set-up: dose 1 ml/kg, time < 24 hrs, route iv; details: in vivo
# [24] = AUClast in Sprague-Dawley rat at 1 ml/kg,iv measured upto 24 hrs by UPLC-MS/MS analysis; format: ADME; set-up: dose 1 ml/kg, time < 24 hrs, route iv; details: in vivo
# [25] = Clearance in Sprague-Dawley rat at 1 ml/kg,iv measured upto 24 hrs by UPLC-MS/MS analysis; format: ADME; details: in vivo
# [26] = Half life in Sprague-Dawley rat at 1 ml/kg,iv measured upto 24 hrs by UPLC-MS/MS analysis; format: ADME; details: in vivo
# [27] = Volume of distribution at steady state in Sprague-Dawley rat at 1 ml/kg,iv measured upto 24 hrs by UPLC-MS/MS analysis; format: ADME; details: in vivo, read-out: Vdss
# [28] = Relative Cmax ratio of Atazanavir in Sprague-Dawley rat at 1 ml/kg,iv measured upto 24 hrs by UPLC-MS/MS analysis; format: ADME; details: in vivo
# [29] = Relative AUC ratio of Atazanavir in Sprague-Dawley rat at 1 ml/kg,iv measured upto 24 hrs by UPLC-MS/MS analysis; format: ADME; details: in vivo
# [30] = Fold ratio of total AUC of Atazanavir in Sprague-Dawley rat at 1 ml/kg,iv measured upto 24 hrs by UPLC-MS/MS analysis; format: ADME; details: in vivo
# [31] = Ratio of Cmax/Cmin of Atazanavir in Sprague-Dawley rat at 1 ml/kg,iv measured after 24 hrs by UPLC-MS/MS analysis; format: ADME; details: in vivo
# [32] = Ratio of AUC of Atazanavir in Sprague-Dawley rat at 1 ml/kg,iv measured upto 24 hrs by UPLC-MS/MS analysis; format: ADME; details: in vivo
# [33] = target: Voltage-gated inwardly rectifying potassium channel KCNH2 (Homo sapiens, UniProt Q12809); experiment: Inhibition of human ERG by patch-clamp assay; format: toxicity
# Sequence of Voltage-gated inwardly rectifying potassium channel KCNH2 (Q12809 whole entry): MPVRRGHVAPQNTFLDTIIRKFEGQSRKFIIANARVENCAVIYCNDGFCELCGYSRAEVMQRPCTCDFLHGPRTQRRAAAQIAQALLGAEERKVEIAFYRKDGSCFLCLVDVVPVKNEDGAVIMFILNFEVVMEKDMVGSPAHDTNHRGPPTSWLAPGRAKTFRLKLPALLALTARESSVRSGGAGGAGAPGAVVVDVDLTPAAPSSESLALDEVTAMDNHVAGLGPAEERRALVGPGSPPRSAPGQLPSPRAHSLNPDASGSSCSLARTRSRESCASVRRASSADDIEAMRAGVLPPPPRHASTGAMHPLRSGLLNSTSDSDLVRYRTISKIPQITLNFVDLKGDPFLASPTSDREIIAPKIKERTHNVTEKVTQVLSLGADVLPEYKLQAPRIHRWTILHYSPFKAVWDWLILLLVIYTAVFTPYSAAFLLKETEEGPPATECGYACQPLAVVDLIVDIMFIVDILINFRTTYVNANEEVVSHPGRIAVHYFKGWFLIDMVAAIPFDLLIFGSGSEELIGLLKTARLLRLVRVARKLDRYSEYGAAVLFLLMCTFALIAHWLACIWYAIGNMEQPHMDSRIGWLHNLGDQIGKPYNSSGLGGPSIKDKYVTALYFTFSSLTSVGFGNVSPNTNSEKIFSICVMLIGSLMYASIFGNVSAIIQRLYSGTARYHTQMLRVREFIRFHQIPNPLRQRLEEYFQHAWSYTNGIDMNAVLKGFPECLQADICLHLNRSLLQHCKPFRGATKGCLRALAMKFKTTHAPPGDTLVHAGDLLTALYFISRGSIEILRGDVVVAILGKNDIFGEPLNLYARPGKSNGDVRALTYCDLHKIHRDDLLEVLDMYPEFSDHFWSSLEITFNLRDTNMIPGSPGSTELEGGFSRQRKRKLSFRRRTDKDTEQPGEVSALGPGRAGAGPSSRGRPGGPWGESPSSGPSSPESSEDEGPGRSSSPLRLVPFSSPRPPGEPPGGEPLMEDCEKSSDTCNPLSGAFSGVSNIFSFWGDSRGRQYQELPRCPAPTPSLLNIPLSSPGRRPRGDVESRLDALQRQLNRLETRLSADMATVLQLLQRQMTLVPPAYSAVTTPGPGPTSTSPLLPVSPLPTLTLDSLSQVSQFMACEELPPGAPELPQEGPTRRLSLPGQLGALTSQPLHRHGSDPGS
structure (smiles),measurement,setting,value
COC(=O)N[C@H](C(=O)N[C@@H](Cc1ccccc1)[C@H](CN(Cc1ccc(-c2ccccn2)cc1)NC(=O)[C@@H](NC(=O)OC)C(C)(C)C)OC(=O)OC(OC(=O)[C@H](N)C(C)C)C(C)C)C(C)(C)C (stereo in doubt; 5j),t1/2,[1],334.3 h
same,t1/2,[2],15.3 h
same,solubility,[3],> 1900 µg/mL
same,solubility,[4],> 1900 µg/mL
same,Cmax,[5],93 nM
same,Tmax,[6],0.4 h
same,AUClast,[7],0.12 µM·h
same,Ratio,[8],8.2
same,Ratio,[9],17.7
same,Ratio,[10],18
same,Ratio,[11],86.9
same,Ratio,[12],0.02
same,IC50,[13],1 µM
same,IC50,[14],2.1 µM
same,Cmax,[15],123 nM
same,Tmax,[16],2.3 h
same,AUC(0-t) at 24 h,[17],1.23 µM·h
same,Ratio,[18],1
same,Ratio,[19],1.88
same,Ratio,[20],1.94
same,Ratio,[21],27.8
same,Ratio,[22],0.03
same,Cmax,[23],371 nM
same,AUC(0-t) at 24 h,[24],0.356 µM·h
same,clearance,[25],47 mL/min/kg
same,half-life,[26],4 h
same,Vd,[27],7.7 L/kg
same,Ratio,[28],1.01
same,Ratio,[29],7.3
same,Ratio,[30],7.8
same,Ratio,[31],431.7
same,Ratio,[32],0.08
same,IC50,[33],8.8 µM
